Measured values as given in patent publication US8231887B2, “Pesticidal compositions” (BASF Corporation, priority 2008, dated 2012).
Values joined by “and” are separate entries in the source; they are usually repeats but may differ in a detail not shown here. Identical values can stand only once.

Key:
Format in all cases: in vivo, Blattella germanica
cockroaches [1] = test: LD50 and LD10 of mineral oils and alcohols, dose-response mortality, probit analysis (Example 9); details: 95% CI printed in the line below
Description: In this example, various mineral oils and alcohols were tested to determine, for cockroaches, the LD50 and LD10 for each.
PD23 and PD28 mineral oils were obtained from Sonneborn LLC, Mahwah, N.J. The physical properties of these oils are shown in Table 11. Each mineral oil was tested to determine the LD50 and LD10 (Table 12).
The tested alcohols were obtained from Sigma-Aldrich Corp., St. Louis, Mo. Each alcohol was tested to determine the LD50 and LD10 (Table 12).

cockroaches [2] = test: Topical toxicity test of alcohols and/or PD23 mineral oil, dead at 24 h (Example 10)
Description: (§1) Toxicity evaluations were performed on 7-14 day old adult male and female German cockroaches (SCJ Strain, S.C. Johnson & Son, Racine, Wis.). Approximately 12 cockroaches were transferred to individual 100×20 mm polystyrene Petri dishes and anesthetized with a 15-25 second exposure to carbon dioxide. The inside edge of each Petri dish was lightly coated with mineral oil plus petroleum jelly in a 1:3 (wt/wt) ratio to minimize escape. Anesthetized cockroaches were positioned with their ventral side up, and a 1 μl drop of the diluted test composition was applied to the area between the meso- and metathoracic legs using a Rainin L-10, 10 μl capacity pipette (Rainin Instrument, LLC, Oakland, Calif.). Five replications of 12 male cockroaches were done for each test composition. Separate tests were done using female cockroaches. Results were evaluated at 24 hours following treatment. Cockroaches were scored as either alive (dorsal side up, active movement when abdomen prodded with dissecting probe) or moribund/dead (dorsal side up and no movement when abdomen prodded or ventral side up and insect unable to right itself).
The compositions comprising alcohol and/or mineral oil are described in Table 13.

cockroaches [3] = test: Topical toxicity test of various compounds and/or PD23 mineral oil, dead at 24 h (Example 12); details: for Proportion dead at 24 h: calculated proportion; for increase in mortality when combined with PD23 mineral oil: result in words, compared to the other compounds tested
Description: as §1

[4] = Table 14, composite data of the replicates
[5] = Table 14, composite data, calculated proportion
[6] = Table 13, per replicate of 10-16 treated cockroaches, mg per insect in the label

Compound	# dead at 24 h (cockroaches [2]; [4])	Proportion dead at 24 h (cockroaches [2]; [5])	# dead at 24 h (cockroaches [3]; Table 17, composite data)	Proportion dead at 24 h (cockroaches [3]; Table 17, composite data)	further results
1-butanol [Composition 1-butanol]	1	0.029	–	–	LD10 mg/insect (cockroaches [1]): 0.877 mg/insect; LD50 mg/insect (cockroaches [1]): 1.018 mg/insect; # dead at 24 h (cockroaches [2]; Table 13, per replicate of 10-16 treated cockroaches, mg per insect in the label, listed as 1-butanol (0.8 mg)): 0 (2×) and 1; Proportion dead at 24 h (cockroaches [2]; Table 13, per replicate, listed as 1-butanol (0.8 mg)): 0.000 (2×) and 0.100
2-butanol [Composition 2-butanol]	1	0.026	–	–	LD10 mg/insect (cockroaches [1]): 0.881 mg/insect; LD50 mg/insect (cockroaches [1]): 1.188 mg/insect; # dead at 24 h (cockroaches [2]; Table 13, per replicate of 10-16 treated cockroaches, mg per insect in the label, listed as 2-butanol (0.8 mg)): 0 (2×) and 1; Proportion dead at 24 h (cockroaches [2]; Table 13, per replicate, listed as 2-butanol (0.8 mg)): 0.000 (2×) and 0.083
CCCCCCCCCCCCCCO [1-tetradecanol]	4	0.108	–	–	# dead at 24 h (cockroaches [2]; Table 13, per replicate of 10-16 treated cockroaches, mg per insect in the label, listed as 1-tetradecanol (1.00 mg)): 1 and 2; Proportion dead at 24 h (cockroaches [2]; Table 13, per replicate, listed as 1-tetradecanol (1.00 mg)): 0.083 and 0.154
CCC(C)=O [2-butanone]	–	–	3	0.083	–
CCCCOCCO [2-butoxyethanol]	0	0.000	–	–	Proportion dead at 24 h (cockroaches [2]; Table 13, per replicate): 0.000; # dead at 24 h (cockroaches [2]; [6]): 0
CCOCCO [2-ethoxyethanol]	–	–	1	0.033	increase in mortality when combined with PD23 mineral oil (cockroaches [3]): greatest increase in mortality
OCCc1ccccc1 [2-phenylethanol]	5	0.106	–	–	LD10 mg/insect (cockroaches [1]): 0.075 mg/insect
CC(=O)c1ccccc1 [Acetophenone (98-86-2) (0.10 mg), Acetophenone]	–	–	0	–	increase in mortality when combined with PD23 mineral oil (cockroaches [3]): greatest increase in mortality
ClC(Cl)Cl [Chloroform-anhydrous (67-66-3) (2.0 mg), Chloroform]	–	–	1	0.050	–
CCCCCCCCCCO [Composition 1-decanol, 1-decanol]	1	0.027	–	–	–
CCCCCCCCCCCCO [Composition 1-dodecanol, 1-dodecanol]	3	0.077	–	–	–
CCCCCCO [Composition 1-hexanol, 1-hexanol]	3	0.083	–	–	Proportion dead at 24 h (cockroaches [2]; Table 13, per replicate): 0.083; # dead at 24 h (cockroaches [2]; [6]): 1
CCCCCCCCCO [Composition 1-nonanol, 1-nonanol]	1	0.024	–	–	–
CCCCCCCCO [Composition 1-octanol, 1-octanol]	2	0.054	–	–	–
CCCCCCCCCCCO [Composition 1-undecanol, 1-undecanol]	4	0.105	–	–	–
OCCOCCO [Di(ethylene) glycol (111-46-6) (0.80 mg), Di(ethylene) glycol]	–	–	6	–	–
CC(=O)CC(C)(C)O [Diacetone alcohol]	1	0.025	–	–	–
ClCCl [Dichloromethane]	–	–	–	0.000	pest or weed control at 1.5 mg (cockroaches [3]; Blattella germanica, topical, 24 h, read-out: Proportion dead at 24 hr): 0%; # dead at 24 h (cockroaches [3]; compound alone, 1.50 mg): 0
COCOC [Dimethoxymethane]	–	–	–	0.000	pest or weed control at 2 mg (cockroaches [3]; Blattella germanica, topical, 24 h, compound alone, 2.00 mg, read-out: Proportion dead at 24 hr): 0%; # dead at 24 h (cockroaches [3]; compound alone, 2.00 mg): 0; Proportion dead at 24 hr (cockroaches [3]; compound alone, 2.00 mg): 0.000
CCO [Ethanol]	1	0.027	–	–	–
CCCCCC [Hexanes (110-54-3) (0.80 mg), Hexanes]	–	–	1	0.100	–
CC(=O)OC(C)C [Isopropyl acetate (108-21-4) (1.0 mg), Isopropyl acetate]	–	–	3	0.150	–
